{
  "source": "patent US7662802B2",
  "about": "“Halide-free glucosamine-acidic drug complexes” (Gluconova, LLC, priority 2004, dated 2010)",
  "assay": "stability of halide-free glucosamine at ambient temperature and/or the atmosphere",
  "format": "physicochemical",
  "data": [
    {"smiles": "N[C@H]1C(O)O[C@H](CO)[C@@H](O)[C@@H]1O", "note": "(some centres unmarked) [halide-free glucosamine, glucosamine]", "values": [
      {"measurement": "hygroscopicity", "value": "quite hygroscopic"},
      {"measurement": "stability on storage", "setting": "subjected to ambient temperature and/or to the atmosphere", "value": "will decompose over a period of time"}
    ]}
  ]
}
